Measurements taken from PubChem BioAssay (NCI).
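Dose response: 5 concentrations. Exposure: 48 h. Format: 96-well plates. Endpoint: linear interpolation; highest concentration if not reached. GI50 is the concentration that inhibits growth by half. Definition used: TGI = concentration required for complete inhibition of growth.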

Assays:
Assay in all cases: NCI-60 cell line screen, 48 h
[1] = test system: MOLT-4 leukemia
[2] = test system: SF-295 CNS
[3] = test system: OVCAR-5 ovarian
[4] = test system: A549 NSCLC
[5] = test system: TK-10 renal
[6] = test system: IGROV1 ovarian
[7] = test system: OVCAR-8 ovarian
[8] = test system: SF-268 CNS
[9] = test system: CCRF-CEM leukemia
[10] = test system: MCF7 breast

Row | SMILES | TGI [1] | TGI [2] | TGI [3] | TGI [4] | TGI [5] | TGI [6] | TGI [7] | TGI [8] | TGI [9] | GI50 [1] | GI50 [10] | TGI [10] | GI50 [3] | GI50 [4] | GI50 [5] | GI50 [7] | GI50 [8] | GI50 [9] | GI50 [2] | GI50 [6]
1 | O=C1CSC(Cc2nc3ccccc3[nH]2)=N1 | > 100 µM | 63.3 µM | 57.5 µM | 79.5 µM | 48.1 µM | > 58.7 µM | 74.9 µM | > 31.6 µM | > 94 µM | – | – | – | – | – | – | – | – | – | – | –
2 | COc1cc2cn3c4ccc(O)cc4[nH]c(=O)c3c2cc1OC | 2.01 µM | – | 2.36 µM | 1.3 µM | 1.97 µM | – | 1.53 µM | 1.55 µM | – | 0.0439 µM | 0.0341 µM | 1.62 µM | 0.269 µM | 0.042 µM | 0.0453 µM | 0.0319 µM | < 0.01 µM | 0.0224 µM | – | –
3 | COc1ccccc1NC(=O)C1=C(C)NC(C)=C(C(=O)Nc2ccccc2OC)C1c1ccc([N+](=O)[O-])cc1 | > 100 µM | 55.9 µM | 90.8 µM | > 100 µM | > 100 µM | > 100 µM | > 100 µM | > 100 µM | > 100 µM | – | – | – | – | – | – | – | – | – | – | –
4 | O=S(O)CCCCSSCc1ccccc1CSSCCCCS(=O)O | 14.5 µM | 49.8 µM | > 100 µM | > 100 µM | > 100 µM | > 100 µM | 89.5 µM | 39.3 µM | 42.5 µM | – | – | – | – | – | – | – | – | – | – | –
5 | CCCCCCCCCc1cc(=O)c2c(O)cccc2o1 | 89.5 µM | > 100 µM | > 100 µM | > 100 µM | > 100 µM | > 100 µM | > 100 µM | > 100 µM | > 100 µM | – | – | – | – | – | – | – | – | – | – | –
6 | CC(=O)Oc1ccccc1C(=O)N=C1[Se]CCN1C(=O)c1ccccc1OC(C)=O | > 100 µM | 2.8 µM | 6.11 µM | 2.64 µM | 1.87 µM | – | 2.7 µM | 1.79 µM | > 100 µM | 0.621 µM | 1.12 µM | 5.06 µM | 0.839 µM | 0.832 µM | 0.491 µM | 0.637 µM | 0.483 µM | 0.556 µM | 1.43 µM | –
7 | O=C(CCC/C(CC(=O)c1ccc(Br)cc1)=N\O)Nc1ccccc1 | > 100 µM | > 100 µM | > 100 µM | > 100 µM | > 100 µM | > 100 µM | > 100 µM | > 100 µM | > 100 µM | – | – | – | – | – | – | – | – | – | – | –
8 | O=C(Nc1ccc([N+](=O)[O-])cc1)C1C(=O)C(=O)N(c2ccc([N+](=O)[O-])cc2)C1=O (configuration not stated) | > 100 µM | > 100 µM | > 100 µM | > 100 µM | > 100 µM | > 100 µM | > 100 µM | > 100 µM | > 100 µM | – | – | – | – | – | – | – | – | – | – | –
9 | CC(=O)Oc1ccc(Nc2c3ccccc3nc3ccccc23)cc1 | > 100 µM | 7.94 µM | 6.75 µM | 1.87 µM | 6.22 µM | 6.98 µM | 4.14 µM | 12.4 µM | – | 0.321 µM | 0.476 µM | 10.1 µM | 2.08 µM | 0.365 µM | 1.68 µM | 1.07 µM | 1.86 µM | – | 0.914 µM | 1.15 µM
10 | CCOC(=O)C1N(S(=O)(=O)c2ccc(C)cc2)CCC12C(c1ccc(OC)cc1)NC1CCCCC12 (configuration not stated) | – | > 100 µM | > 100 µM | > 100 µM | > 100 µM | > 100 µM | > 100 µM | > 100 µM | > 100 µM | – | – | – | – | – | – | – | – | – | – | –
11 | CCOC(=O)CCc1c(C)c2c(OC(C)=O)cc(OC(C)=O)cc2oc1=O | – | > 100 µM | > 100 µM | > 100 µM | > 100 µM | – | > 100 µM | 77.4 µM | – | – | – | – | – | – | – | – | – | – | – | –
12 | NC1CCCC[C@H]1N.N[C@@H]1CCCC[C@@H]1N.O=C(P(=O)([O-])[O-])P(=O)([O-])[O-].[Pt+4].[Pt+4] | > 100 µM | > 100 µM | > 100 µM | > 100 µM | > 100 µM | > 100 µM | > 100 µM | > 100 µM | > 100 µM | 16 µM | – | – | > 100 µM | > 100 µM | > 100 µM | > 100 µM | > 100 µM | 14.1 µM | 96.7 µM | > 100 µM
13 | CCOC(=O)[C@H](CCCNC(=O)OC(C)(C)C)NCc1ccc(OC)c(OC)c1 | > 100 µM | > 100 µM | > 100 µM | > 100 µM | > 100 µM | > 100 µM | > 100 µM | > 100 µM | > 100 µM | – | – | – | – | – | – | – | – | – | – | –
14 | Cc1cccc(NC(=O)/C=C/c2ccc(N(CCC#N)CCC#N)cc2C)c1 | > 100 µM | > 100 µM | > 100 µM | > 100 µM | > 100 µM | > 100 µM | > 100 µM | > 100 µM | > 100 µM | – | – | – | – | – | – | – | – | – | – | –
15 | O=C(CSc1nnc(-c2ccccc2NC(=O)C(F)(F)F)c(=O)[nH]1)NC(=O)Nc1ccccc1 | > 100 µM | > 100 µM | > 100 µM | > 100 µM | > 100 µM | > 100 µM | > 100 µM | > 100 µM | > 100 µM | – | – | – | – | – | – | – | – | – | – | –
16 | O=C(CCCN1CC=C(n2c(=O)[nH]c3ccccc32)CC1)c1ccc(F)cc1 | 91.8 µM | – | > 100 µM | > 100 µM | > 100 µM | > 100 µM | > 100 µM | – | > 100 µM | 30.5 µM | 31.1 µM | > 100 µM | 94.1 µM | 70.2 µM | 87 µM | 32.9 µM | – | 35.5 µM | – | > 100 µM
17 | CCOC(=O)c1[nH]c(COC(C)=O)c(CCCOC(C)=O)c1CCCOC(C)=O | > 100 µM | > 100 µM | > 100 µM | > 100 µM | > 100 µM | > 100 µM | > 100 µM | > 100 µM | > 100 µM | – | – | – | – | – | – | – | – | – | – | –
18 | O=C(CN1CCCCC1)N1CCc2c([nH]c3ccccc23)C1c1cccnc1 (configuration not stated) | > 100 µM | > 100 µM | > 100 µM | > 100 µM | > 100 µM | > 100 µM | > 100 µM | > 100 µM | > 100 µM | – | – | – | – | – | – | – | – | – | – | –
19 | O=C(O)Cc1c(O)ccc2ccccc12 | > 100 µM | > 100 µM | > 100 µM | > 100 µM | > 100 µM | > 100 µM | > 100 µM | > 100 µM | – | – | – | > 100 µM | – | – | – | – | – | – | – | –
